# Reference: paper PMC7150891, “Mertansine Inhibits mRNA Expression and Enzyme Activities of Cytochrome P450s and Uridine 5′-Diphospho-Glucuronosyltransferases in Human Hepatocytes and Liver Microsomes” (Pharmaceutics, 2020)
# “Also recorded” adds a separate entry of the source.
# Experiments:
# [1] = tested on: CYP2C8 mRNA; assay: CYP2C8 mRNA level in human hepatocytes after 48 h treatment (RT-PCR); conditions: plated cryopreserved human hepatocytes, IC50, suppression of CYP2C8 mRNA expression, 1.25–2500 nM
# [2] = tested on: CYP1A2; assay: CYP1A2-catalyzed phenacetin O-deethylase activity in human hepatocytes after 48 h treatment
# Procedure: Samples were incubated for 48 h at 37 °C in 5% CO2, and the medium was exchanged with 250 μL of fresh medium containing drugs or the vehicle every 24 h.
# The effects of mertansine on CYP1A2, CYP2B6, and CYP3A4 activities were evaluated. […] Mixtures were vortexed for 2 min and then centrifuged at 13,000 g for 4 min at 4 °C. The supernatant (40 µL) was diluted with 60 µL of deionized water and then mixed for 2 min by vortexing. An aliquot (5 µL) was analyzed using LC-MS/MS [37], and CYP1A2, CYP2B6, and CYP3A4 enzyme activities were expressed as formation rates (pmol/million cells/min).
# The percentage changes in enzymatic activities were calculated as (CYP activity with test compound treatment/CYP activity with vehicle control treatment) × 100. The IC50 (the concentration of the inhibitor needed for half-maximal inhibition) values were calculated using SigmaPlot ver. […] Ki (the inhibition constant) and the inhibition mode of UGT1A1, UGT1A3, and UGT1A4 activities were determined using Enzyme Kinetics ver. 1.1 (Systat Software, Inc.).
# [3] = design: method as in PMID 25048520, PMID 22752008; conditions: up to 1 µM; cited from earlier work
# [4] = tested on: CYP2C19 mRNA; assay: CYP2C19 mRNA level in human hepatocytes after 48 h treatment (RT-PCR); conditions: plated cryopreserved human hepatocytes, IC50, suppression of CYP2C19 mRNA expression, 1.25–2500 nM
# [5] = MTS colorimetric cytotoxicity assay in human hepatocytes; format: cell-based; conditions: human hepatocytes (lot 319), 48 h mertansine treatment (1.25–6250 nM), lot 319, MTS
# Procedure: The hepatocytes were incubated with 0.0125, 0.0625, 0.125, 0.250, 0.625, 1.25, 2.5, and 6.25 μM mertansine in triplicate for 48 h at 37 °C in 5% CO2. The medium was exchanged with fresh medium containing mertansine every 24 h. Then, 20 μL of MTS solution was added to each well and the plate was incubated for 1 h at 37 °C in 5% CO2. The absorbance of the reaction mixture was measured at 492 nm.
# [6] = target: T1, UGT1A9 (Homo sapiens, UniProt O60656); assay: Inhibition of UGT1A9-catalyzed mycophenolic acid β-D-glucuronidation in ultrapooled human liver microsomes; format: in vitro ADME
# T1 construct: ultrapooled human liver microsomes (0.2 mg/mL); from tissue; host or cells: human liver microsomes (ultrapooled)
# T1 sequence (O60656 26-530): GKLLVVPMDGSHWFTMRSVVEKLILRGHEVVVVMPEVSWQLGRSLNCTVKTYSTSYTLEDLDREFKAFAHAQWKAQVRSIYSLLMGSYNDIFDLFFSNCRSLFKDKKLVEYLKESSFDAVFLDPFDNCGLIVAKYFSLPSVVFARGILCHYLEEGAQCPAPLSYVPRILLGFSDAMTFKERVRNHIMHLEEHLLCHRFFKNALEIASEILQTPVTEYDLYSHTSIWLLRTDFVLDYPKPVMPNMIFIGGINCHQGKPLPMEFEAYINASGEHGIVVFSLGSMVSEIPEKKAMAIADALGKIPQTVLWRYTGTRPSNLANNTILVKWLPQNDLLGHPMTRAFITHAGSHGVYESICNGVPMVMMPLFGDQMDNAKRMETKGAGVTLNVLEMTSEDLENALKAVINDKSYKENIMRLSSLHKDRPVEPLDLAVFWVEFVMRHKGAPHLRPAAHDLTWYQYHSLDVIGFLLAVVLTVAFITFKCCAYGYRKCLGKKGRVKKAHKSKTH
# Procedure: The inhibitory potential of mertansine on UGT1A1, UGT1A3, UGT1A4, UGT1A6, UGT1A9, and UGT2B7 activities was evaluated using liquid chromatography–tandem mass spectrometry (LC-MS/MS) with a cocktail of UGT substrates and ultrapooled human liver microsomes. Each incubation mixture was prepared to a final volume of 100 μL as follows: ultrapooled human liver microsomes (0.2 mg/mL), 5 mM UDPGA, 10 mM magnesium chloride, alamethicin (25 μg/mL), 50 mM Tris buffer (pH 7.4), various concentrations of mertansine in methanol (final concentrations of 0.01–50 μM), and the cocktail sets of UGT enzyme-specific substrates. Two cocktail sets were used: set A contained 0.5 μM SN-38 for UGT1A1, 2 μM chenodeoxycholic acid for UGT1A3, and 0.5 μM trifluoperazine for UGT1A4; and set B contained 1 μM N-acetylserotonin for UGT1A6, 0.2 μM mycophenolic acid for UGT1A9, and 1 μM naloxone for UGT2B7. The reactions were initiated by adding UDPGA and incubated in a shaking water bath for 60 min at 37 °C. Reactions were terminated by adding 50 μL of ice-cold acetonitrile containing internal standards (IS, propofol glucuronide for set A and meloxicam for set B). Incubation mixtures were centrifuged at 13,000 g for 8 min at 4 °C. Next, 50 μL of each supernatant of sets A and B was mixed, and aliquots (5 μL) were analyzed using LC-MS/MS. […]
# [7] = tested on: recombinant human CYP3A4; design: method as in PMID 25048520, PMID 22752008; conditions: cited from earlier work
# [8] = Mean ± SD of three human hepatocyte lots, 48 h
# [9] = human hepatocytes Lot 319, 48 h
# [10] = human hepatocytes Lot 321, 48 h
# [11] = human hepatocytes Lot 361, 48 h
structure (smiles),measurement,setting,value
"COc1cc2cc(c1Cl)N(C)C(=O)CC(OC(=O)C(C)N(C)C(=O)CCS)C1(C)OC1C(C)C1CC(O)(NC(=O)O1)C(OC)C=CC=C(C)C2 (stereo not shown) [mertansine, Mertansine]",IC50 at 48 h,[1]; [8],32.1 ± 14.9 nM
same,IC50 at 48 h,[1]; [9],48.7 nM
same,IC50 at 48 h,[1]; [10],20 nM
same,IC50 at 48 h,[1]; [11],27.5 nM
same,Mean decrease of CYP1A2-mediated phenacetin O-deethylase activity,"[2]; highest concentration (2500 nM), 48 h, mean of three human hepatocytes",48.3%
same,Decrease of CYP1A2-mediated phenacetin O-deethylase activity compared to vehicle,"[2]; mertansine 48 h, three human hepatocytes",27.8–79.0%
same,Induction potential,[3],no induction potential
same,IC50 at 48 h,[4]; [8],540 ± 233 nM
same,IC50 at 48 h,[4]; [9],574 nM
same,IC50 at 48 h,[4]; [10],754 nM
same,IC50 at 48 h,[4]; [11],291 nM
same,viability at 48 h,[5],> 96.2%
same,Inhibition of UGT1A9 enzyme activity,"[6]; human liver microsomes, mertansine at 50 µM",no inhibition; also recorded: negligibly inhibited
same,"IC50, mycophenolic acid β-D-glucuronidation (UGT1A9)","[6]; ultrapooled human liver microsomes, 0.2 µM mycophenolic acid (cocktail)",No inhibition
same,KI (inactivation),"[7]; recombinant human CYP3A4, irreversible inhibition, read-out: Ki, inactivation of midazolam 1′-hydroxylation",3400 nM
same,"kinact, inactivation of midazolam 1′-hydroxylation",[7]; recombinant human CYP3A4,0.058 min⁻¹
